In patent US20170266156A1, “METHOD FOR PREVENTING CANCER BY USING PHTHALIDES” (National Sun Yat-sen University, priority 2016, published 2017):

Biological target: hemoglobin (Hb) (Homo sapiens, UniProt P68871+P69905)
Assay: oxygen equilibrium curves / P50 of hemoglobin treated with 2,3-BPG and phthalide compounds
Assay type: biochemical
Details: for effect of phthalide compound together with 2,3-BPG (lowering the oxygen affinity of hemoglobin): FIG. 1
Text: The oxygen affinity of hemoglobin is commonly characterized by P50 value. The P50 value is the required oxygen partial pressure for hemoglobin to achieve 50% oxygen saturation.

hemoglobin (Hb), sequence (P69905 2-142 limits assumed): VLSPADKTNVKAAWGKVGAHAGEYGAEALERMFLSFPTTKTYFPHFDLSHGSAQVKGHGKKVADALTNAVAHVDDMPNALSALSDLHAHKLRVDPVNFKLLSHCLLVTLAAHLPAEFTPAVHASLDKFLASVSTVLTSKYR
hemoglobin (Hb), sequence (P68871 2-147 limits assumed): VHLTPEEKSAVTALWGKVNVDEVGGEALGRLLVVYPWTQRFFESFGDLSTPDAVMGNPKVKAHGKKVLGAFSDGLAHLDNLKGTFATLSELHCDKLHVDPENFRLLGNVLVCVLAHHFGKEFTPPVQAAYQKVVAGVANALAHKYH

| SMILES | oxygen release efficiency of hemoglobin (1.2 mM 2,3-BPG, PO2 of 20 mmHg) [%] | oxygen saturation fraction of hemoglobin (1.2 mM 2,3-BPG, PO2 of 20 mmHg) | oxygen saturation fraction of hemoglobin (Hb) (12 mM 2,3-BPG, fixed oxygen partial pressure of 20 mmHg, 80% where no 2,3-BPG is present) [%] | oxygen release efficiency (12 mM 2,3-BPG, oxygen partial pressure 20 mmHg, 20% without 2,3-BPG) [%] | change of P50 value with 2,3-BPG concentration (FIG. 2, various 2,3-BPG concentrations up to 12.0 mM) | P50 value (approximately 4 mM 2,3-BPG, no phthalide compound) [mmHg] | effect of phthalide compound together with 2,3-BPG (lowering the oxygen affinity of hemoglobin) |
| --- | --- | --- | --- | --- | --- | --- | --- |
| O=C(O)C(COP(=O)(O)O)OP(=O)(O)O (centres unmarked) [2,3-BPG, 2,3-bisphosphorglycerate] | 40 | approximately 60% | 35 | 65 | higher | 18.8 | – |
| CCC/C=C1\OC(=O)C2=C1CCC=C2 [Z-ligustilide] | – | – | – | – | – | – | synergistic effect |
| CCC/C=C1\OC(=O)C2=C1CC[C@@H](O)[C@@H]2O [senkyunolide I] | – | – | – | – | – | – | synergistic effect |
